Measured values from patent US6337402B2, “Asymmetrical bisbenzotriazoles substituted by a perfluoroalkyl moiety and compositions stabilized therewith” (Ciba Specialty Chemicals Corporation, priority 1999, dated 2002).

Experiment: Bisbenzotriazole solubility in adhesive GELVA 263
Type: physicochemical
Conditions: in GELVA 263 polyacrylate adhesive; approximate maximum concentration with no sign of crystallization after solvent evaporation; weight added to GELVA 263 as is
Method: To measure the solubility of the instant bisbenzotriazole UV absorber in an adhesive composition, the compound is added to a typical adhesive GELVA® 263 (Solutia) which is a 44.5% solution of a polyacrylate in a mixture of ethyl acetate and hexane. The polyacrylate is a copolymer of methyl methacrylate, 2-ethylhexyl methacrylate and glycidyl methacrylate.
The test compound is dissolved in 5 mL of ethyl acetate, toluene or a mixture of ethyl acetate and toluene. To the solution is added 5 g of GELVA® 263. 2-3 mL of the resulting solution is place into individual watch glasses. Solubility is then evaluated based upon observed crystallization once the solvent has evaporated. Observations start after several hours and then continue over a period of several weeks.
Solubilities are reported in weight of total bisbenzotriazole added to GELVA® 263 as is.

| SMILES | Solubility without Crystallization (%) |
| --- | --- |
| CC(C)(C)c1cc(Cc2cc(C(C)(C)C)cc(-n3nc4ccc(S(=O)(=O)c5ccccc5)cc4n3)c2O)c(O)c(-n2nc3ccc(S(=O)(=O)c4ccccc4)cc3n2)c1 [A, 2,2′-Methylene-bis[6-(5-phenylsulfonyl-2H-benzotriazol-2-yl)-4-tert-butylphenol]] | 0.0 |
| CC(C)(C)CC(C)(C)c1cc(Cc2cc(C(C)(C)C)cc(-n3nc4ccc(S(=O)(=O)c5ccccc5)cc4n3)c2O)c(O)c(-n2nc3ccc(C(F)(F)F)cc3n2)c1 [G, Methylene-2-[4-tert-butyl-6-(5-phenylsulfonyl-2H-benzotriazol-2-yl)phenol]-2′-[4-tert-octyl-6-(5-trifluoromethyl-2H-benzotriazol-2-yl)phenol]] | 22.0 |
| CC(C)(C)CC(C)(C)c1cc(Cc2cc(C(C)(C)C)cc(-n3nc4ccc(Sc5ccccc5)cc4n3)c2O)c(O)c(-n2nc3ccc(C(F)(F)F)cc3n2)c1 [H, Methylene-2-[4-tert-butyl-6-(5-phenylthio-2H-benzotriazol-2-yl)phenol]-2′-[4-tert-octyl-6-(5-trifluoromethyl-2H-benzotriazol-2-yl)phenol]] | 22.0 |
| CC(C)(C)c1cc(-n2nc3ccc(Cl)cc3n2)c(O)c(C(C)(C)C)c1 [C, 5-chloro-2-(2-hydroxy-3,5-di-tert-butylphenyl)-2H-benzotriazole] | 2.0 |
| CC(C)(C)CC(C)(C)c1cc(Cc2cc(C(C)(C)CC(C)(C)C)cc(-n3nc4ccc(C(F)(F)F)cc4n3)c2O)c(O)c(-n2nc3ccc(C(F)(F)F)cc3n2)c1 [E, 2,2′-methylene-bis[6-(5-trifluoromethyl-2H-benzotriazol-2-yl)-4-tert-octylphenol]] | 4.0 |
| CC(C)(C)CC(C)(C)c1cc(Cc2cc(C(C)(C)C)cc(-n3nc4ccc(Cl)cc4n3)c2O)c(O)c(-n2nc3ccc(C(F)(F)F)cc3n2)c1 [F, Methylene-2-[4-tert-butyl-6-(5-chloro-2H-benzotriazol-2-yl)phenol]-2 ′-[4-tert-octyl-6-(5-trifluoromethyl-2H-benzotriazol-2-yl)phenol]] | 11.0 |
| CC(C)(c1ccccc1)c1cc(-n2nc3ccccc3n2)c(O)c(C(C)(C)c2ccccc2)c1 [B, 2-(2-hydroxy-3,5-di-α-cumylphenyl)-2H-benzotriazole] | 2.0 |
| CC(C)(C)CC(C)(C)c1cc(Cc2cc(C(C)(C)CC(C)(C)C)cc(-n3nc4ccc(C(F)(F)F)cc4n3)c2O)c(O)c(-n2nc3ccccc3n2)c1 [D, methylene-2-[4-tert-octyl-6-(2H-benzotriazol-2-yl)phenol]-2′-[4-tert-octyl-6-(5-trifluoromethyl-2H-benzotriazol-2-yl)phenol]] | 2.0 |

Experiment: not given
Conditions: not given

| melting point [°C] | SMILES |
| --- | --- |
| 224 to 234 | CC(C)(C)c1cc(Cc2cc(C(C)(C)C)cc(-n3nc4ccc(S(=O)(=O)c5ccccc5)cc4n3)c2O)c(O)c(-n2nc3ccc(S(=O)(=O)c4ccccc4)cc3n2)c1 [A, 2,2′-Methylene-bis[6-(5-phenylsulfonyl-2H-benzotriazol-2-yl)-4-tert-butylphenol]] |
